Laboratory results published in ChEMBL document CHEMBL1201862, “PubChem BioAssay data set” (2004).
Activity calls are given as the source filed them.

What was measured:
[1] = target: T1, Probable nicotinate-nucleotide adenylyltransferase (Staphylococcus aureus (strain N315), UniProt P65502); type: functional, Staphylococcus aureus subsp. aureus N315;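 as to IC50 Mean: confirmatory dose-response retesting of NadD inhibitor hits first found in an ultra-high-throughput screen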
[2] = target: T1, Probable nicotinate-nucleotide adenylyltransferase; type: functional, Staphylococcus aureus subsp. aureus N315; conditions: read-out: IC50_Mean
[3] = target: ADP-ribosylation factor GTPase-activating protein 1 (Rattus norvegicus, UniProt Q62848); test: Fluorescence polarization-based biochemical high throughput dose response screening assay to identify inhibitors of ADP-ribosylation factor GTPase activating protein 1 (ARFGAP1).; type: functional
Sequence of ADP-ribosylation factor GTPase-activating protein 1 (Q62848 whole entry): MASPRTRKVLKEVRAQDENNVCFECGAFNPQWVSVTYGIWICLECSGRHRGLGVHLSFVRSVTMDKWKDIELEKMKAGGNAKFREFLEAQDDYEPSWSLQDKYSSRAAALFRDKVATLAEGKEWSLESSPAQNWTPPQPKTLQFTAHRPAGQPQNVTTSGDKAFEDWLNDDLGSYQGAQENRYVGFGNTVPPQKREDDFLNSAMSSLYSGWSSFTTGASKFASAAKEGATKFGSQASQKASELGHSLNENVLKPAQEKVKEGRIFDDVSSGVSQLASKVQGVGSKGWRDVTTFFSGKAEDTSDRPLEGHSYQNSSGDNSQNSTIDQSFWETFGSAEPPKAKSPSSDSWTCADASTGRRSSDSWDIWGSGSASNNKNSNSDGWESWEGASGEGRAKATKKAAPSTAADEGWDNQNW

[4] = target: T2, Small ubiquitin-related modifier 2 (Homo sapiens, UniProt P61956); test: SUMO2–SIM peptide binding inhibitors, dose response, selectivity assay for SUMO1 interaction inhibitor project, biochemical, fluorescence polarization, uHTS hits (AID 624385); type: functional; conditions: read-out: IC50_Mean
T2 sequence (P61956 whole entry): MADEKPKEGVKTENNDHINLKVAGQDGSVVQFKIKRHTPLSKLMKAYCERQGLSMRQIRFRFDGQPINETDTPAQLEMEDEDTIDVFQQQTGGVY

[5] = target: T3, Small ubiquitin-related modifier 1 (Homo sapiens, UniProt P63165); test: inhibitors of SUMO1 peptide binding, dose response, biochemical, fluorescence polarization, uHTS hits (AID 624382); type: functional; conditions: read-out: IC50_Mean
T3 sequence (P63165 whole entry): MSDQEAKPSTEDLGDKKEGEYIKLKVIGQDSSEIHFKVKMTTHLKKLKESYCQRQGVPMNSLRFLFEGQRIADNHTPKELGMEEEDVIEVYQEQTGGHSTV

[6] = target: T2, Small ubiquitin-related modifier 2; test: inhibitors of SUMO2 protein-protein interaction, dose response, selectivity assay for SUMO1 interaction inhibitor project, biochemical, FRET, human SUMO2, uHTS hits (AID 624384); type: functional; conditions: read-out: IC50_Mean
[7] = target: T3, Small ubiquitin-related modifier 1; test: inhibitors of SUMO1 partner interactions, dose response, biochemical, FRET (AID 624383); type: functional; conditions: read-out: IC50_Mean
[8] = half-maximal inhibitory concentration for glucagon-like peptide-1 release, STC-1 cell line, dose-response (AID 1117345); type: functional, cell-based
[9] = Glucagon-like peptide 1 release potency, NCI-H716 cell line, dose-response, half-maximal inhibitory concentration (AID 1117344); type: functional, cell-based
[10] = target: T4, Replicative DNA helicase DnaB (Mycobacterium tuberculosis, UniProt P9WMR3); test: DnaB intein splicing inhibitors, dose response, biochemical, cell-free fluorescence (AID 449749); type: functional
T4 sequence (P9WMR3 whole entry): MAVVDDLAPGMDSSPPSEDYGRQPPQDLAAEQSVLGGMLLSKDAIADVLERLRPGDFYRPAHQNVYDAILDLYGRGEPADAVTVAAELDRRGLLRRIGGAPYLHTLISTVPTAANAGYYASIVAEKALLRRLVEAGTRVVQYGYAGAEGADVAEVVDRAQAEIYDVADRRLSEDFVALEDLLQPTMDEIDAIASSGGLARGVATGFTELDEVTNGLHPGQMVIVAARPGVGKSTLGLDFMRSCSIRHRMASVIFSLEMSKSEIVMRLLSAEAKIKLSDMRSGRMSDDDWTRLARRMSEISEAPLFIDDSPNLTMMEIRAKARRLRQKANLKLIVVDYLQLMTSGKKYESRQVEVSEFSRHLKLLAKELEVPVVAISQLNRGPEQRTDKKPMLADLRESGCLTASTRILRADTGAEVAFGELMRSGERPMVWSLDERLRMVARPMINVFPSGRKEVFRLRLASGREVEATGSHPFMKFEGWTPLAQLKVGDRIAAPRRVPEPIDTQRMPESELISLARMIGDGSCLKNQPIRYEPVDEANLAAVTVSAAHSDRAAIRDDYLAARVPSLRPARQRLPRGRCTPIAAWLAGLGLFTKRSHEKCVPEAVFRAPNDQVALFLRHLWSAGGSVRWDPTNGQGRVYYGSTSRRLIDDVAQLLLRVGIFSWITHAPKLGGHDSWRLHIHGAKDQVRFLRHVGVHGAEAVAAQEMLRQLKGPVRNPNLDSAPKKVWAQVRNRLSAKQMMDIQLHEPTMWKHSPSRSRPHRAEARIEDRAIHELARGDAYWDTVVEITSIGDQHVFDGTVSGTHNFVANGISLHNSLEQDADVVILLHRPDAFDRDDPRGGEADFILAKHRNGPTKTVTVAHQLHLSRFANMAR

Protein RecA = target: T5, Protein RecA (Mycobacterium tuberculosis, UniProt P9WHJ3); test: Fluorescence Cell-Free Homogeneous Dose Retest to Identify Inhibitors of RecA-Intein Splicing Activity. [Related pubchem assays (depositor defined):AID2097, AID2223, AID489010, AID492950]; type: functional
T5 sequence (P9WHJ3 whole entry): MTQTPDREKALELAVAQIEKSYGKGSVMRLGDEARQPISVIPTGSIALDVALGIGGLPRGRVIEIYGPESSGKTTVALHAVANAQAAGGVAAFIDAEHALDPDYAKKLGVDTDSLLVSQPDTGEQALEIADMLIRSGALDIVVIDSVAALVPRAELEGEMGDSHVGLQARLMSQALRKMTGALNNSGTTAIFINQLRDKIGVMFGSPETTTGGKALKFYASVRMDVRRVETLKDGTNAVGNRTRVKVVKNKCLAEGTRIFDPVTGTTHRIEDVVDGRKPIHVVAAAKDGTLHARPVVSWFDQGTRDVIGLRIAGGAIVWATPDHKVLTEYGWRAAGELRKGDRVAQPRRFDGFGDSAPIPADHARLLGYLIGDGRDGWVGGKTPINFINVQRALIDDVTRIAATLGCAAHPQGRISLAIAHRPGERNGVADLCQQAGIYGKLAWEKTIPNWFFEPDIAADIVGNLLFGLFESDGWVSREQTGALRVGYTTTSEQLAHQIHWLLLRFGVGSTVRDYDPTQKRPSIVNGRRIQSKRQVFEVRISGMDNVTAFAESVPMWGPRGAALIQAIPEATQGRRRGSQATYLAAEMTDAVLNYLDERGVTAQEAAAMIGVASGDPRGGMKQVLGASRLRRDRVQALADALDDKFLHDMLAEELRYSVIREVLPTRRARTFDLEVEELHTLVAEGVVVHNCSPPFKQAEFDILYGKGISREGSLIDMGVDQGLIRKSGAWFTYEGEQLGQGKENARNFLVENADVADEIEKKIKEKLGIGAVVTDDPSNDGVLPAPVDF

[11] = target: T6, Sentrin-specific protease 8 (Homo sapiens, UniProt Q96LD8); type: functional
T6 sequence (Q96LD8 whole entry): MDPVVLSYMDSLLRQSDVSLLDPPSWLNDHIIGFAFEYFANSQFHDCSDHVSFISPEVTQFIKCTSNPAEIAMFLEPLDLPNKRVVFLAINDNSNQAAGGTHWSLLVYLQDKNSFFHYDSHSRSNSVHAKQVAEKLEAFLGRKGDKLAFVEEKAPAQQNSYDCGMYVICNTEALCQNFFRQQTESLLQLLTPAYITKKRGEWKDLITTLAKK

[12] = target: T6, Sentrin-specific protease 8; type: functional; remark: listed apart in the source

T1 sequence (P65502 whole entry): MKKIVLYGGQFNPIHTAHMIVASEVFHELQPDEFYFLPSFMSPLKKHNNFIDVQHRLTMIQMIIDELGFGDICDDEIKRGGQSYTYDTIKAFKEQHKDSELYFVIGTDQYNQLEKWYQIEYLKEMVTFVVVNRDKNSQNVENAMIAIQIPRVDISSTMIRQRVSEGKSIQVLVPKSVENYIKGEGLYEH

For `N#Cc1c(SCc2c(Cl)cccc2Cl)nc(N)[nH]c1=S`, the IC50 [1] was 13 µM (active) and the IC50 [2] was 32.9 µM (active).

With `CCC(=O)Nc1ccc(NC(=O)CSc2nnnn2-c2ccc3c(c2)OCCO3)cc1` the IC50 [3] was 40.7 µM (inactive).

For `[O-][S+](c1cc(Cl)cc(Cl)c1O)c1cc(Cl)cc(Cl)c1O` [BITHIONOLOXIDE], the IC50 [4] was 3.55 µM (active), the IC50 [5] was 876 nM (active) and the IC50 [6] was 43.3 µM (inactive). For the same compound, the IC50 [7] was 9.66 µM (active), the IC50 [8] was > 40 µM (inactive) and the IC50 [9] was 19.7 µM (inactive).

With `O=C1C2=[N+]([O-])C3CCCCC3[N+]([O-])=C2c2ccccc21` (stereo not drawn) the AC50 [10] was 6.38 µM (active), the EC50 (Protein RecA) was 9.54 µM (active) and the IC50 [11] was 9.46 µM (active). For the same compound, the IC50 [12] was 2.98 µM (active).
